This is an account of results in PubChem BioAssay (NCI).

Among the test systems are MDA-MB-435; SK-MEL-5 melanoma; T-47D breast; SF-268 CNS; HCT-15 colon; A498 renal; U251 CNS; MOLT-4 leukemia; K-562 leukemia; CAKI-1 renal.
What all share (assay): DTP human tumour cell line panel, 48 h

SMILES strings stand for the structures.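 All cell lines were grown in 96-well plates and treated with compound for 48 hours. Here, GI50 denotes the concentration required for 50% inhibition of growth. TGI denotes the concentration required for complete inhibition of growth.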 Where a SMILES comes first, the peptide text is derived from it. Side-chain parts run from the residue outwards. The star is where a group is joined. Cbz = O=C(OCc1ccccc1)*; Boc = CC(C)(C)OC(=O)* Bounds are passed on as bounds.

Take `CC1(C)C(C(=O)OC(C#N)c2cccc(OCC(=O)OCc3ccccc3)c2)C1(C)C` (stereo not given): the TGI with MDA-MB-435, with SK-MEL-5 melanoma, with T-47D breast, with SF-268 CNS, in the test with HCT-15 colon and in the test with A498 renal was > 100 µM in each case. In addition, the TGI – broadly, the concentration giving total growth inhibition – in the test with U251 CNS was > 100 µM; in the test on MOLT-4 leukemia, 62.7 µM; in the test with K-562 leukemia it was > 100 µM; with CAKI-1 renal, > 100 µM.
For `Cc1cc2nc(NS(=O)(=O)c3cc(C)c(Cl)cc3S)[nH]c2cc1C`, the TGI in the test with MDA-MB-435, in the test on SK-MEL-5 melanoma, in the test on T-47D breast, with SF-268 CNS, in the test on HCT-15 colon and in the test on A498 renal was > 100 µM throughout. For the same compound, the TGI in the test on U251 CNS, in the test on MOLT-4 leukemia, in the test on K-562 leukemia and with CAKI-1 renal was > 100 µM throughout.
For the compound `CC(C)CC(NC(=O)OCc1ccccc1)C(=O)NCCCCC(NC(=O)C(CCCCNC(=O)C(CC(C)C)NC(=O)OCc1ccccc1)NC(=O)C(CCCCNC(=O)C(CC(C)C)NC(=O)OCc1ccccc1)NC(=O)C(CCCCNC(=O)C(CC(C)C)NC(=O)OCc1ccccc1)NC(=O)OC(C)(C)C)C(=O)O` (stereo not given) (Boc-K([Leu-Cbz])K([Leu-Cbz])K([Leu-Cbz])K([Leu-Cbz])-OH; configuration not given here), the concentration for total growth inhibition (TGI) in the test on MDA-MB-435, in the test on SK-MEL-5 melanoma, with T-47D breast, in the test with SF-268 CNS, in the test with HCT-15 colon and with A498 renal was > 25 µM throughout. The concentration for total growth inhibition (TGI) in the test with U251 CNS, in the test on MOLT-4 leukemia, in the test with K-562 leukemia and with CAKI-1 renal was > 25 µM each time.
For the compound `CCOc1ccc(-n2c(=O)n3c(Nc4ccc(Cl)cc4)nc4c(c(=O)n(C)c(=O)n4C)n3c2=O)cc1`, the TGI in the test on MDA-MB-435 is 39.7 µM; in the test on SK-MEL-5 melanoma, 36 µM; with T-47D breast, > 100 µM; with SF-268 CNS it was > 100 µM; in the test on HCT-15 colon it was 42 µM; with A498 renal, 39.4 µM. The TGI in the test on U251 CNS was > 100 µM; in the test on MOLT-4 leukemia, 69.9 µM; in the test on K-562 leukemia, 84 µM; in the test with CAKI-1 renal, > 100 µM.
Turning to `O=C(O)[C@H]1NC[C@@H]2ON=C(Br)[C@@H]21`, the total growth inhibition concentration (TGI) in the test with MDA-MB-435, in the test with SK-MEL-5 melanoma, in the test with T-47D breast, in the test with SF-268 CNS, in the test with HCT-15 colon and in the test on A498 renal was > 100 µM in each case. The TGI with U251 CNS, in the test on MOLT-4 leukemia, in the test on K-562 leukemia and with CAKI-1 renal was > 100 µM throughout.
`CCNC(=O)CCCCC(=O)c1c(C)[nH]c(/C=C2\N=C(c3ccc[nH]3)C=C2OC)c1C`: the GI50 (in general, the concentration giving 50% growth inhibition) was 2.77 µM with MDA-MB-435; 11.7 µM in the test on SK-MEL-5 melanoma; 2.68 µM in the test with T-47D breast; 2.41 µM in the test on SF-268 CNS; 1.83 µM in the test on HCT-15 colon; 8.19 µM in the test on A498 renal. The GI50 was 1.99 µM with U251 CNS, 2.31 µM in the test on MOLT-4 leukemia, 3.23 µM with K-562 leukemia and 2.09 µM in the test on CAKI-1 renal. The total growth inhibition concentration (TGI) with MDA-MB-435 stood at 7.74 µM; in the test with SK-MEL-5 melanoma it was 24.9 µM; in the test on T-47D breast, 6.43 µM; with SF-268 CNS, 6.52 µM; in the test on HCT-15 colon it was 4.4 µM; with A498 renal, 21 µM. For the same compound, the TGI is 4.5 µM in the test on U251 CNS, > 100 µM with MOLT-4 leukemia, > 100 µM in the test on K-562 leukemia and 5 µM with CAKI-1 renal.
As to `COc1ccc(-c2cc(-c3ccc(Nc4ccnc5cc(C(F)(F)F)ccc45)cc3)[nH]c(=O)c2C#N)cc1`, the TGI in the test with MDA-MB-435 is > 100 µM; in the test on SK-MEL-5 melanoma, > 100 µM; with T-47D breast, > 100 µM; with SF-268 CNS it was > 88.6 µM; with HCT-15 colon it was > 100 µM; in the test on A498 renal, > 55.1 µM. The TGI is > 70.9 µM in the test on U251 CNS, > 100 µM in the test on MOLT-4 leukemia, > 100 µM in the test with K-562 leukemia and > 100 µM with CAKI-1 renal.
As to `COc1ccc(CCN2CCOCC2)cc1`, the TGI with MDA-MB-435, with SK-MEL-5 melanoma, with T-47D breast, with SF-268 CNS, with HCT-15 colon and in the test with A498 renal was > 100 µM each time. Further, the TGI in the test on U251 CNS, in the test on MOLT-4 leukemia, in the test with K-562 leukemia and in the test with CAKI-1 renal was > 100 µM in each case.
As to `CCOC(=O)c1ccc2c(=O)n3c(C(=O)OCC)ccc3c(=O)n12`, the concentration for total growth inhibition (TGI) with MDA-MB-435, in the test on SK-MEL-5 melanoma, in the test with T-47D breast, with SF-268 CNS, in the test on HCT-15 colon and in the test with A498 renal was > 100 µM in each case. For the same compound, the TGI with U251 CNS, in the test with MOLT-4 leukemia, with K-562 leukemia and in the test on CAKI-1 renal was > 100 µM in each case.
Turning to `OC(C1CCCC1=N/N=C1/CCCC1C(O)(C(F)(F)Cl)C(F)(F)Cl)(C(F)(F)Cl)C(F)(F)Cl` (stereo not given), the total growth inhibition concentration (TGI) in the test with MDA-MB-435, in the test with SK-MEL-5 melanoma, in the test with T-47D breast, with SF-268 CNS, in the test with HCT-15 colon and in the test on A498 renal was > 10 µM each time. The TGI in the test with U251 CNS, in the test on MOLT-4 leukemia, in the test on K-562 leukemia and with CAKI-1 renal was > 10 µM throughout.
As to `Nc1ccc(S(=O)(=O)c2ccc(N=[N+]([O-])c3ccc(S(=O)(=O)c4ccc(N)cc4)cc3)cc2)cc1`, the TGI with MDA-MB-435 was > 100 µM; in the test on SK-MEL-5 melanoma, > 100 µM; in the test with T-47D breast, > 100 µM; in the test on SF-268 CNS, > 45.9 µM; with HCT-15 colon, > 100 µM; in the test on A498 renal, > 85.1 µM. In addition, the TGI with U251 CNS was > 57.3 µM; with MOLT-4 leukemia it was > 100 µM; in the test on K-562 leukemia, > 100 µM; in the test on CAKI-1 renal, > 100 µM.
Regarding `CC(Nc1cc(=O)n(C)c(=O)[nH]1)c1ccccc1` (stereo not given), the TGI in the test with MDA-MB-435, with SK-MEL-5 melanoma, with T-47D breast, in the test on SF-268 CNS, in the test with HCT-15 colon and in the test on A498 renal was > 100 µM throughout. Besides, the TGI with U251 CNS, in the test on MOLT-4 leukemia, with K-562 leukemia and with CAKI-1 renal was > 100 µM in each case.
With `COC(=O)C1(Cc2ccc3c(c2)CCC3)Cc2cc3c(cc2C1=O)CCC3` (stereo not given), the total growth inhibition concentration (TGI) in the test on MDA-MB-435 was 43 µM; in the test on SK-MEL-5 melanoma it was 32.3 µM; in the test on T-47D breast it was > 46.4 µM; in the test with SF-268 CNS, > 46.4 µM; in the test on HCT-15 colon, > 46.4 µM; with A498 renal, > 31.6 µM. The TGI was > 46.4 µM in the test on U251 CNS, 38.7 µM in the test on MOLT-4 leukemia, > 46.4 µM in the test with K-562 leukemia and > 31.6 µM in the test with CAKI-1 renal.
As for `CC(C)=CCC[C@@H](C)C1=C(O)C(Nc2ccccc2F)=C(C)C(=O)C1=O`, the TGI in the test on MDA-MB-435 was > 100 µM; in the test with SK-MEL-5 melanoma it was 42.3 µM; in the test with T-47D breast it was 57.7 µM; in the test with SF-268 CNS, > 54 µM; in the test on HCT-15 colon, > 70.2 µM; in the test with A498 renal it was 67.2 µM. Moreover, the TGI was > 100 µM in the test on U251 CNS, > 100 µM with MOLT-4 leukemia, > 100 µM in the test with K-562 leukemia and 48.2 µM in the test on CAKI-1 renal.
On to `COC(=O)Nc1nc2ccc(NS(=O)(=O)c3ccc(F)cc3)cc2[nH]1`, for which the concentration for total growth inhibition (TGI) is 11.2 µM in the test on MDA-MB-435; > 100 µM in the test with SK-MEL-5 melanoma; > 100 µM with T-47D breast; > 100 µM in the test with SF-268 CNS; > 100 µM with HCT-15 colon; > 100 µM in the test with A498 renal. In addition, the TGI with U251 CNS is > 100 µM; in the test on MOLT-4 leukemia, 36.5 µM; with K-562 leukemia, > 100 µM; with CAKI-1 renal, > 100 µM.
In the case of `CCOc1ccc(C(c2c(O)c3ccccc3oc2=O)c2c(O)c3ccccc3oc2=O)cc1`, the TGI in the test on MDA-MB-435, with SK-MEL-5 melanoma, in the test on T-47D breast, in the test with SF-268 CNS, in the test on HCT-15 colon and with A498 renal was > 100 µM each time. Also, the TGI with U251 CNS, in the test on MOLT-4 leukemia, with K-562 leukemia and in the test on CAKI-1 renal was > 100 µM throughout.
For `Cc1ccc(C(=O)/C=C/N2CCN(c3cccc(C(F)(F)F)c3)CC2)cc1`, the concentration for total growth inhibition (TGI) in the test with MDA-MB-435 amounted to 32.4 µM; in the test with SK-MEL-5 melanoma, 29.2 µM; with T-47D breast it was 76.5 µM; in the test with SF-268 CNS it was 36.8 µM; with HCT-15 colon, 29.5 µM; in the test on A498 renal, 33.3 µM. The total growth inhibition concentration (TGI) in the test with U251 CNS amounted to 31.4 µM; with MOLT-4 leukemia, 48.2 µM; with K-562 leukemia, 49.1 µM; with CAKI-1 renal it was 37 µM.
On to `CC1=NN(c2cccc(Cl)c2)C2(C1)SCC(=O)N2c1nc2ccccc2s1` (stereo not given), for which the concentration for total growth inhibition (TGI) was 79.7 µM with MDA-MB-435; 39.4 µM with SK-MEL-5 melanoma; 84.4 µM with T-47D breast; > 100 µM with SF-268 CNS; > 100 µM in the test on HCT-15 colon; 89.8 µM in the test with A498 renal. The TGI in the test with U251 CNS was 75.2 µM; in the test on MOLT-4 leukemia, 38.9 µM; in the test on K-562 leukemia it was 48.9 µM; in the test with CAKI-1 renal, > 100 µM.
